Laboratory results: patent US8314255B2, “Use of phthalimide and/or sulphonamide derivatives in the treatment of diseases which require reducing the TNF- α levels and an exogenous source of nitric oxide, phthalimide derivatives, sulphonamide derivatives, and a method for obtaining a sulphonamide derivative” (priority 2007, dated 2012)
Values joined by “and” are separate entries in the source; they are usually repeats but may differ in a detail not shown here. Equal values may be shown once.

How the values were obtained:
[1] = test system: abdominal writhing induced by acetic acid; test: Abdominal writhing assay induced by acetic acid; type: in vivo; details: oral, mice, acetic acid 0.1N i.p. after 1 hour, writhings counted during 20 minutes
Protocol: In order to evaluate the peripheral analgesic activity of the compounds, an abdominal writhing assay induced by acetic acid (Table 6) was carried out. In this assay, we could infer that compound ID has an important analgesic activity, inhibiting abdominal writhing by 66%. […] The analgesic activity may be related to the ability of these compounds to inhibit the cytokine TNFα, since it is known that this would be one of the mechanisms that explain the analgesia of molecules such as thalidomide.
The antinociceptive profile was evaluated through the abdominal writhing assay induced by acetic acid in mice. In this assay, Swiss mice from both genders were used, weighing from 21 to 28 grams, fasted for a time period of about 8 hours. The test substance was administered orally and had, as a carrier, 5% gum arabic. After 1 hour, the administration of acetic acid 0.1N (0.1 mL/10 g weight) was performed in the peritoneal cavity of the animals. Ten minutes after the injection of acetic acid, writhings were counted during 20 minutes.

[2] = test system: Salmonella typhimurium TA102; test: AMES test, mutagenic evaluation in Salmonella typhimurium TA102 strain with/without metabolic activation (S9); type: cell-based
Procedure, shortened: (§1)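 Preincubation Ames assay, 20–30 min at 37 °C with compound in DMSO, in 0.2 M phosphate buffer pH 7.4 or, with activation, Aroclor 1254-induced Sprague Dawley rat liver S9 mix. Plated in histidine/biotin-trace top agar, revertants counted after 48 h at 37 °C, triplicate. Mutagenicity ratio versus negative control, ≥2 scored positive; dose-response by ANOVA/Bernstein regression.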

[3] = test system: Salmonella typhimurium TA100; test: AMES test, mutagenic evaluation in Salmonella typhimurium TA100 strain with/without metabolic activation (S9); type: cell-based
Procedure, shortened: as §1

Compound: O=C1c2ccccc2C(=O)N1c1ccc(CO[N+](=O)[O-])cc1 [ID, 4-(1,3-dioxo-1,3-dihydro-2H-isoindol-2-yl)benzyl nitrate]
- Average (abdominal writhings) [1]: 16.2
- Inhibition % (abdominal writhing) [1]: 66% and 66.03%
- mutagenicity ratio (MR) ([2]; TA 102, +S9, 0.224 μmol/plate): 1.09
- number of revertants per plate ([2]; TA 102, +S9, 0.224 μmol/plate): 405.7 ± 13 revertants/plate
- mutagenicity ratio (MR) ([2]; TA 102, +S9, 0.488 μmol/plate): 1.16
- number of revertants per plate ([2]; TA 102, +S9, 0.488 μmol/plate): 434.7 ± 21 revertants/plate
- mutagenicity ratio (MR) ([2]; TA 102, +S9, 0.896 μmol/plate): 0.99
- number of revertants per plate ([2]; TA 102, +S9, 0.896 μmol/plate): 370 ± 6 revertants/plate
- mutagenicity ratio (MR) ([2]; TA 102, +S9, 1.8 μmol/plate): 1.06
- number of revertants per plate ([2]; TA 102, +S9, 1.8 μmol/plate): 397.3 ± 9.3 revertants/plate
- mutagenicity ratio (MR) ([2]; TA 102, +S9, 3.58 μmol/plate): 1.14
- number of revertants per plate ([2]; TA 102, +S9, 3.58 μmol/plate): 427.3 ± 5 revertants/plate
- mutagenicity ratio (MR) ([2]; TA 102, −S9, 0.224 μmol/plate): 1.31
- number of revertants per plate ([2]; TA 102, −S9, 0.224 μmol/plate): 340.3 ± 9.7 revertants/plate
- mutagenicity ratio (MR) ([2]; TA 102, −S9, 0.488 μmol/plate): 1.43
- number of revertants per plate ([2]; TA 102, −S9, 0.488 μmol/plate): 373.5 ± 21 revertants/plate
- mutagenicity ratio (MR) ([2]; TA 102, −S9, 0.896 μmol/plate): 1.5
- number of revertants per plate ([2]; TA 102, −S9, 0.896 μmol/plate): 391.2 ± 6.3 revertants/plate
- mutagenicity ratio (MR) ([2]; TA 102, −S9, 1.8 μmol/plate): 1.87
- number of revertants per plate ([2]; TA 102, −S9, 1.8 μmol/plate): 486.8 ± 20 revertants/plate
- mutagenicity ratio (MR) ([2]; TA 102, −S9, 3.58 μmol/plate): 1.62
- number of revertants per plate ([2]; TA 102, −S9, 3.58 μmol/plate): 420 ± 8.6 revertants/plate
- mutagenicity ratio (MR) ([3]; TA 100, +S9, 0.224 μmol/plate): 1.21
- number of revertants per plate ([3]; TA 100, +S9, 0.224 μmol/plate): 157 ± 13 revertants/plate
- mutagenicity ratio (MR) ([3]; TA 100, +S9, 0.488 μmol/plate): 1.42
- number of revertants per plate ([3]; TA 100, +S9, 0.488 μmol/plate): 184.7 ± 16 revertants/plate
- mutagenicity ratio (MR) ([3]; TA 100, +S9, 0.896 μmol/plate): 1.67
- number of revertants per plate ([3]; TA 100, +S9, 0.896 μmol/plate): 216.7 ± 18 revertants/plate
- mutagenicity ratio (MR) ([3]; TA 100, +S9, 1.8 μmol/plate): 1.49
- number of revertants per plate ([3]; TA 100, +S9, 1.8 μmol/plate): 192.7 ± 16 revertants/plate
- mutagenicity ratio (MR) ([3]; TA 100, +S9, 3.58 μmol/plate): 2.03
- number of revertants per plate ([3]; TA 100, +S9, 3.58 μmol/plate): 263 ± 12.3 revertants/plate
- mutagenicity ratio (MR) ([3]; TA 100, −S9, 0.224 μmol/plate): 1.27
- number of revertants per plate ([3]; TA 100, −S9, 0.224 μmol/plate): 228 ± 18 revertants/plate
- mutagenicity ratio (MR) ([3]; TA 100, −S9, 0.488 μmol/plate): 1.33
- number of revertants per plate ([3]; TA 100, −S9, 0.488 μmol/plate): 239 ± 11.5 revertants/plate
- mutagenicity ratio (MR) ([3]; TA 100, −S9, 0.896 μmol/plate): 1.29
- number of revertants per plate ([3]; TA 100, −S9, 0.896 μmol/plate): 231 ± 20.2 revertants/plate
- mutagenicity ratio (MR) ([3]; TA 100, −S9, 1.8 μmol/plate): 1.18
- number of revertants per plate ([3]; TA 100, −S9, 1.8 μmol/plate): 212.3 ± 17 revertants/plate
- mutagenicity ratio (MR) ([3]; TA 100, −S9, 3.58 μmol/plate): 1.94
- number of revertants per plate ([3]; TA 100, −S9, 3.58 μmol/plate): 349 ± 5.6 revertants/plate
